Biological target: hTREM2 (Homo sapiens, UniProt Q9NZC2)
Assay: Phospho-Syk AlphaScreen/AlphaLISA assay in TREM2 and DAP12 overexpressing HEK293 cells (Example A1)
Format: cell-based
Design: expressed in transfected cells
Settings: HEK293 cells; for EC50: read-out: hTREM2 EC50
In short: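 Single-cell-cloned HEK293 stably overexpressing TREM2 and DAP12, plated 20,000 cells/well for 20 h, then exposed to compounds (1% DMSO) 45 min at room temperature. Lysates probed for phospho-Syk by AlphaLISA sandwich (anti-pSyk, biotinylated anti-Syk); signal normalized to percent of control (100 nM anti-TREM2 antibody vs isotype) and fitted by 4-parameter logistic.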

Sequence of hTREM2 (Q9NZC2 19-230): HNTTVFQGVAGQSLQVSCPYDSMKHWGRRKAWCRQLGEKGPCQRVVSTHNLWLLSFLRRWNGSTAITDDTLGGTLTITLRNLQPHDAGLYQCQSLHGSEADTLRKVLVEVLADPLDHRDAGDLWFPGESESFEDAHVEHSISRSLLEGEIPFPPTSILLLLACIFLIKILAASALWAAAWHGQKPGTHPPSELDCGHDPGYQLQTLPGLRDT
Sequence of hTREM2 (O43914 22-113 partner): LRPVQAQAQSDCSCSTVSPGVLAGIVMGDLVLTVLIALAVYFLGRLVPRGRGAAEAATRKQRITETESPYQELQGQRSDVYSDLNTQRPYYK

Structure (SMILES) | Emax | EC50 [µM]
Cc1ccc([C@@H]2C[C@@H](c3cc4nc(C)n(C)c(=O)c4c(-c4ccc(Cl)cc4F)n3)CCO2)cn1 [Example 272, 5-(4-chloro-2-fluorophenyl)-2,3-dimethyl-7-((2S,4S)-2-(6-methylpyridin-3-yl)tetrahydro-2H-pyran-4-yl)pyrido[4,3-d]pyrimidin-4(3H)-one] | ++++ (Emax>300) | 0.05 to 0.5
Cc1nc2cc(N3CC[C@H](c4ccccc4)C3)nc(-c3ccc(Cl)cc3F)c2c(=O)n1C [Example 206, (R)-5-(4-chloro-2-fluorophenyl)-2,3-dimethyl-7-(3-phenylpyrrolidin-1-yl)pyrido[4,3-d]pyrimidin-4(3H)-one] | ++ (Emax>100 and ≤200) | 3 to 100
Cc1nc2cc(N3CCC[C@H](N4CCCC4=O)C3)nc(-c3ccc(Cl)cc3F)c2c(=O)n1C [Example 232, (S)-5-(4-chloro-2-fluorophenyl)-2,3-dimethyl-7-(3-(2-oxopyrrolidin-1-yl)piperidin-1-yl)pyrido[4,3-d]pyrimidin-4(3H)-one] | ++++ (Emax>300) | 0.5 to 3
CCCn1c(C)nc2cc(N3CCO[C@@H](c4cnn(C)c4)C3)nc(-c3ncc(Cl)cc3F)c2c1=O [Example 153, 5-(5-chloro-3-fluoro-2-pyridinyl)-2-methyl-7-((2S)-2-(1-methyl-1H-pyrazol-4-yl)-4-morpholinyl)-3-propylpyrido[4,3-d]pyrimidin-4(3H)-one] | ++++ (Emax>300) | 0.05 to 0.5
CCn1c(C)nc2cc(N3CCO[C@@H](c4ccnc(C)c4)C3)nc(-c3ccc(F)cc3F)c2c1=O [Example 150, 5-(2,4-difluorophenyl)-3-ethyl-2-methyl-7-((2S)-2-(2-methyl-4-pyridinyl)-4-morpholinyl)pyrido[4,3-d]pyrimidin-4(3H)-one] | +++ (Emax>200 and ≤300) | < 0.05
Cc1nc2cc([C@@H]3CCO[C@H](c4cnn(C5CC5)c4)C3)nc(-c3ccc(Cl)cc3F)c2c(=O)n1C (single isomer, unassigned) [Example 166] | +++ (Emax>200 and ≤300) | 0.5 to 3
Cc1nc2cc(N3CCO[C@@H](c4cnn(C)c4)C3)nc(C3CCCCC3)c2c(=O)n1C [Example 159, 5-cyclohexyl-2,3-dimethyl-7-((2S)-2-(1-methyl-1H-pyrazol-4-yl)-4-morpholinyl)pyrido[4,3-d]pyrimidin-4(3H)-one] | +++ (Emax>200 and ≤300) | 0.5 to 3
Cc1nc2cc(N3CCO[C@H]([C@@H]4CCO4)C3)nc(-c3ccc(Cl)cc3F)c2c(=O)n1C [Example 269, 5-(4-chloro-2-fluorophenyl)-2,3-dimethyl-7-((S)-2-((S)-oxetan-2-yl)morpholino)pyrido[4,3-d]pyrimidin-4(3H)-one] | ++++ (Emax>300) | 0.5 to 3
Cc1nc2cc(N3CCC[C@H](c4ccccc4)C3)nc(-c3ccc(Cl)cc3F)c2c(=O)n1C [Example 213, (R)-5-(4-chloro-2-fluorophenyl)-2,3-dimethyl-7-(3-phenylpiperidin-1-yl)pyrido[4,3-d]pyrimidin-4(3H)-one] | ++++ (Emax>300) | 3 to 100
Cc1nc2cc(N3CCO[C@H](c4ccsc4)C3)nc(-c3ccc(Cl)cc3F)c2c(=O)n1C (single isomer, unassigned) [Example 54] | ++++ (Emax>300) | 0.05 to 0.5
Cc1nc2cc(N3CCO[C@H](c4cccc(Cl)c4)C3)nc(-c3ccc(Cl)cc3F)c2c(=O)n1C [Example 239, (R)-5-(4-chloro-2-fluorophenyl)-7-(2-(3-chlorophenyl)morpholino)-2,3-dimethylpyrido[4,3-d]pyrimidin-4(3H)-one] | +++ (Emax>200 and ≤300) | 3 to 100
Cc1nc2cc([C@H]3CCO[C@@H](c4cnn(C)c4)C3)nc(-c3ccc(Cl)cc3F)c2c(=O)n1C (single isomer, unassigned) [Example 162] | +++ (Emax>200 and ≤300) | < 0.05
Cc1nc2cc(N3CCO[C@H](c4ccc(Cl)cc4)C3)nc(-c3ccc(Cl)cc3F)c2c(=O)n1C (single isomer, unassigned) [Example 86] | ++++ (Emax>300) | 0.5 to 3
Cc1nc2cc(N3CCO[C@@H]([C@@H]4CCOC4)C3)nc(-c3ccc(Cl)cc3F)c2c(=O)n1C (single isomer, unassigned) [Example 44] | +++ (Emax>200 and ≤300) | 0.05 to 0.5
Cc1nc2cc(N3CCO[C@H](C4CC4)C3)nc(-c3ccc(Cl)cc3F)c2c(=O)n1C [Example 194, (R)-5-(4-chloro-2-fluorophenyl)-7-(2-cyclopropylmorpholino)-2,3-dimethylpyrido[4,3-d]pyrimidin-4(3H)-one] | +++ (Emax>200 and ≤300) | 3 to 100
Cc1cc([C@@H]2C[C@H](c3cc4nc(C)n(C)c(=O)c4c(-c4ccc(Cl)cc4F)n3)CCO2)ccn1 (single isomer, unassigned) [Example 170] | +++ (Emax>200 and ≤300) | 0.5 to 3

Further lines, results first:

Emax | EC50 [µM] | Structure (SMILES)
++++ (Emax>300) | 3 to 100 | Cc1nc2cc(N3CC[C@@H](c4cccnc4)C3)nc(-c3ccc(Cl)cc3F)c2c(=O)n1C [Example 260, (S)-5-(4-chloro-2-fluorophenyl)-2,3-dimethyl-7-(3-(pyridin-3-yl)pyrrolidin-1-yl)pyrido[4,3-d]pyrimidin-4(3H)-one]
+ (Emax>45 and ≤100) | 3 to 100 | Cc1nc2cc(N3CC[C@H](n4cccn4)C3)nc(-c3ccc(Cl)cc3F)c2c(=O)n1C [Example 203, (S)-7-(3-(1H-pyrazol-1-yl)pyrrolidin-1-yl)-5-(4-chloro-2-fluorophenyl)-2,3-dimethylpyrido[4,3-d]pyrimidin-4(3H)-one]
++++ (Emax>300) | 3 to 100 | CCCn1c(C)nc2cc(N3Cc4cnn(C)c4C3)nc(-c3ccc(Cl)cc3F)c2c1=O [Example 181, 5-(4-chloro-2-fluorophenyl)-2-methyl-7-(1-methyl-4,6-dihydropyrrolo[3,4-c]pyrazol-5(1H)-yl)-3-propylpyrido[4,3-d]pyrimidin-4(3H)-one]
++++ (Emax>300) | 0.05 to 0.5 | Cc1nc2cc(N3CCO[C@@H](c4cnn(CCN(C)C)c4)C3)nc(-c3ccc(Cl)cc3F)c2c(=O)n1C [Example 132, 5-(4-chloro-2-fluorophenyl)-7-((2S)-2-(1-(2-(dimethylamino)ethyl)-1H-pyrazol-4-yl)-4-morpholinyl)-2,3-dimethylpyrido[4,3-d]pyrimidin-4(3H)-one]
+++ (Emax>200 and ≤300) | 0.5 to 3 | Cc1nc2cc(N3C[C@H](c4cnn(C)c4)OC[C@H]3C)nc(-c3ccc(Cl)cc3F)c2c(=O)n1C (single isomer, unassigned) [Example 25]
+++ (Emax>200 and ≤300) | 0.5 to 3 | Cc1nc2cc(N3CCO[C@H](c4cnn(C)c4)C3)nc(-c3ccc(Cl)cc3F)c2c(=O)n1C [Example 2, 5-(4-chloro-2-fluorophenyl)-2,3-dimethyl-7-((2R)-2-(1-methyl-1H-pyrazol-4-yl)-4-morpholinyl)pyrido[4,3-d]pyrimidin-4(3H)-one]
++++ (Emax>300) | 0.05 to 0.5 | Cc1nc2cc(N3CCc4cnn(C)c4C3)nc(-c3ccc(Cl)cc3F)c2c(=O)n1C [Example 104, 5-(4-chloro-2-fluorophenyl)-2,3-dimethyl-7-(1-methyl-1,4,5,7-tetrahydro-6H-pyrazolo[3,4-c]pyridin-6-yl)pyrido[4,3-d]pyrimidin-4(3H)-one]
++++ (Emax>300) | 0.05 to 0.5 | Cc1nc2cc(N3CCC[C@H](c4cn[nH]c4)C3)nc(-c3ccc(Cl)cc3F)c2c(=O)n1C (single isomer, unassigned) [Example 108]
+++ (Emax>200 and ≤300) | 3 to 100 | Cc1nc([C@H]2CN(c3cc4nc(C)n(C)c(=O)c4c(-c4ccc(Cl)cc4F)n3)CCO2)no1 (single isomer, unassigned) [Example 56]
++++ (Emax>300) | 0.05 to 0.5 | Cc1nc([C@@H]2CN(c3cc4nc(C)n(C)c(=O)c4c(-c4ccc(Cl)cc4F)n3)CCO2)no1 [Example 200, (S)-5-(4-chloro-2-fluorophenyl)-2,3-dimethyl-7-(2-(5-methyl-1,2,4-oxadiazol-3-yl)morpholino)pyrido[4,3-d]pyrimidin-4(3H)-one]
+++ (Emax>200 and ≤300) | 0.5 to 3 | Cc1nc2cc(N3CCO[C@@](C)(c4cnn(C)c4)C3)nc(-c3ccc(Cl)cc3F)c2c(=O)n1C [Example 224, (S)-5-(4-chloro-2-fluorophenyl)-2,3-dimethyl-7-(2-methyl-2-(1-methyl-1H-pyrazol-4-yl)morpholino)pyrido[4,3-d]pyrimidin-4(3H)-one]
++ (Emax>100 and ≤200) | 3 to 100 | Cc1cnc2n1CCN(c1cc3nc(C)n(C)c(=O)c3c(-c3ccc(Cl)cc3F)n1)C2 [Example 223, 5-(4-chloro-2-fluorophenyl)-2,3-dimethyl-7-(3-methyl-5,6-dihydroimidazo[1,2-a]pyrazin-7(8H)-yl)pyrido[4,3-d]pyrimidin-4(3H)-one]
++++ (Emax>300) | 3 to 100 | Cc1nc2cc(N3CCO[C@H](c4cccnc4)C3)nc(-c3ccc(Cl)cc3F)c2c(=O)n1C (single isomer, unassigned) [Example 47]
++++ (Emax>300) | 0.05 to 0.5 | Cc1nc2cc(N3CCOC(c4cncc(F)c4)C3)nc(-c3ccc(Cl)cc3F)c2c(=O)n1C (centres unmarked) [Example 69, 5-(4-chloro-2-fluorophenyl)-7-(2-(5-fluoro-3-pyridinyl)-4-morpholinyl)-2,3-dimethylpyrido[4,3-d]pyrimidin-4(3H)-one]
+++ (Emax>200 and ≤300) | 0.5 to 3 | Cc1nc2cc(N3C[C@H](C)O[C@@H](c4cnn(C)c4)C3)nc(-c3ccc(Cl)cc3F)c2c(=O)n1C (single isomer, unassigned) [Example 30]

Reference: patent US20250388574A1, “HETEROCYCLIC COMPOUNDS AS TRIGGERING RECEPTOR EXPRESSED ON MYELOID CELLS 2 AGONISTS AND METHODS OF USE” (AMGEN INC., priority 2020, published 2025)
